For 25 compounds, IC50 and EC50 results are on record in patent US20240043427A1 (Gilead Sciences, Inc., priority 2020, published 2024).

A word on the IC50: it is the point on the concentration scale where inhibition reaches its midpoint. The low end stands for higher potency, the high end for lower potency. Usually EC50 stands for the concentration needed to bring the measured effect to its halfway point. A low value points to an effect from little substance.

In assay [1] the target is T1, CD73 (Homo sapiens (Human), UniProt P21589). Type of assay: biochemical. To be noted: 1 mM NaH2PO4 in enzyme buffer, CD73 0.3 nM, AMP 15 uM.
The target of assay [2] is T1, CD73. The assay can be described thus: MDA-MB-231 Cell Based CD73 Activity Assay (DMEM). As to conditions: MDA-MB-231-GFP cells, DMEM medium with 10% human plasma, 200 uM AMP.

T1 sequence (P21589 27-574): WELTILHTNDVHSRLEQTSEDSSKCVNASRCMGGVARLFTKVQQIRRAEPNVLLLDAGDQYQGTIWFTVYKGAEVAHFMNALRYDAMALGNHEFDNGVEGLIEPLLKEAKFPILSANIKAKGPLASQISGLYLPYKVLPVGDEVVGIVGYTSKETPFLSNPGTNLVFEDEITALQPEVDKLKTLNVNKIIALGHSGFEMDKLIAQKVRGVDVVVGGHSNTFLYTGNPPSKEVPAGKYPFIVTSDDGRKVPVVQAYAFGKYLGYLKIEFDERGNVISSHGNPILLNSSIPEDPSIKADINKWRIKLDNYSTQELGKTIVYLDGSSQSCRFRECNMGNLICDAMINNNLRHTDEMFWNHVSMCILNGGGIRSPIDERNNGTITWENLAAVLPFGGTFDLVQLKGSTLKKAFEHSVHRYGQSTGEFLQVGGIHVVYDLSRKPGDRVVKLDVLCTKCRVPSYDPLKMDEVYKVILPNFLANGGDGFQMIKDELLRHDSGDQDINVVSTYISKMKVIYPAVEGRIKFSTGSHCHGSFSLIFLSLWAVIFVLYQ

For the compound `COc1cc([C@H]2C[C@@H]2c2cc(-c3c[nH]c(=O)[nH]c3=O)nn3ccnc23)ccc1C#N` [Example 559, 4-((1S,2S)-2-(6-(2,4-dioxo-1,2,3,4-tetrahydropyrimidin-5-yl)imidazo[1,2-b]pyridazin-8-yl)cyclopropyl)-2-methoxybenzonitrile], inhibition against CD73 [1] was half-maximal at 0.97 nM (IC50). The EC50 at CD73 [2] was 7.77 nM.
Regarding `O=c1[nH]cc(-c2cc([C@H]3C[C@@H]3c3cc(F)c4cnn(CC(F)(F)F)c4c3)c3ncc(F)n3n2)c(=O)[nH]1` [Example 618, 5-(3-fluoro-8-((1S,2S)-2-(4-fluoro-1-(2,2,2-trifluoroethyl)-1H-indazol-6-yl)cyclopropyl)imidazo[1,2-b]pyridazin-6-yl)pyrimidine-2,4(1H,3H)-dione], the midpoint of inhibition at CD73 [1], the IC50, lay at 0.34 nM. Moreover, the EC50 on CD73 [2] was found to be 0.13 nM.
As for `O=c1[nH]cc(-c2cc([C@H]3C[C@@H]3c3cnc4c(F)nn(CC(F)(F)F)c4c3)c3nccn3n2)c(=O)[nH]1` [Example 717, 5-[8-[(1S,2S)-2-[3-fluoro-1-(2,2,2-trifluoroethyl)pyrazolo[4,3-b]pyridin-6-yl]cyclopropyl]imidazo[1,2-b]pyridazin-6-yl]-1H-pyrimidine-2,4-dione], on CD73 [1], the IC50 was found to be 0.69 nM. In addition, the EC50 on CD73 [2] was determined as 0.26 nM.
At CD73 [1], `CC(C)c1nn(CC(F)(F)F)c2cc([C@H]3C[C@@H]3c3cc(-c4c[nH]c(=O)[nH]c4=O)nn4ccnc34)ccc12` (racemic) [Example 396, 5-(8-((1S,2S)-2-(3-isopropyl-1-(2,2,2-trifluoroethyl)-1H-indazol-6-yl)cyclopropyl)imidazo[1,2-b]pyridazin-6-yl)pyrimidine-2,4(1H,3H)-dione] returned an IC50 of 2 nM. The compound also returned an EC50 on CD73 [2] of 0.24 nM.
Consider `O=c1[nH]cc(-c2cc(N3CC(F)(F)C4(CN(CC(F)F)C4)C3)c3nccn3n2)c(=O)[nH]1` [Example 507, 5-(8-(2-(2,2-difluoroethyl)-8,8-difluoro-2,6-diazaspiro[3.4]octan-6-yl)imidazo[1,2-b]pyridazin-6-yl)pyrimidine-2,4(1H,3H)-dione], for which 9.83 nM corresponded to half-maximal inhibition at CD73 [1] (IC50). On CD73 [2], this compound displayed an EC50 of 19.7 nM.
Take `CC1CCN(c2cc(-c3c[nH]c(=O)[nH]c3=O)nn3ccnc23)CCC1(F)F` (centres unmarked) [Example 484, 5-(8-(4,4-difluoro-5-methylazepan-1-yl)imidazo[1,2-b]pyridazin-6-yl)pyrimidine-2,4(1H,3H)-dione]: half-maximal inhibition at CD73 [1] (IC50) required 68.7 nM. On CD73 [2], this compound had an EC50 of 180 nM.
As for `O=c1[nH]cc(-c2cc(N3CCC4(C3)CC(F)(F)C4)c3nccn3n2)c(=O)[nH]1` [Example 571, 5-(8-(2,2-difluoro-6-azaspiro[3.4]octan-6-yl)imidazo[1,2-b]pyridazin-6-yl)pyrimidine-2,4(1H,3H)-dione], it took 30.4 nM to reach half-maximal inhibition against CD73 [1] (IC50). Further, at CD73 [2], the EC50 came out at 62.3 nM.
For `O=c1[nH]cc(-c2cc(N3CCC4(CC4)C(F)(F)C3)c3nccn3n2)c(=O)[nH]1` [Example 260, 5-(8-(4,4-difluoro-6-azaspiro[2.5]octan-6-yl)imidazo[1,2-b]pyridazin-6-yl)pyrimidine-2,4(1H,3H)-dione], the IC50 against CD73 [1] was greater than 250 nM. At CD73 [2], this compound registered an EC50 of 963 nM.
On to `O=C(CCC(F)(F)COc1cc(-c2c[nH]c(=O)[nH]c2=O)nn2ccnc12)NCC(F)(F)F` [Example 458, 5-((6-(2,4-dioxo-1,2,3,4-tetrahydropyrimidin-5-yl)imidazo[1,2-b]pyridazin-8-yl)oxy)-4,4-difluoro-N-(2,2,2-trifluoroethyl)pentanamide], for which it took 4.04 nM to reach half-maximal inhibition at CD73 [1] (IC50). On CD73 [2], this compound registered an EC50 of 13.2 nM.
`O=c1[nH]cc(-c2cc(N3CC(F)(F)C4(CC4)C3)n3ncc(Cl)c3n2)c(=O)[nH]1` [Example 218, 5-(3-chloro-7-(7,7-difluoro-5-azaspiro[2.4]heptan-5-yl)pyrazolo[1,5-a]pyrimidin-5-yl)pyrimidine-2,4(1H,3H)-dione] yielded an IC50 at CD73 [1] of 3.29 nM. For the same compound, the EC50 on CD73 [2] is 455 nM.
On the same counts, the results for `Cc1cc([C@H]2C[C@@H]2c2cc(-c3c[nH]c(=O)[nH]c3=O)nn3ccnc23)cc2c1cnn2CC(F)(F)F` [Example 714, 5-(8-((1S,2S)-2-(4-methyl-1-(2,2,2-trifluoroethyl)-1H-indazol-6-yl)cyclopropyl)imidazo[1,2-b]pyridazin-6-yl)pyrimidine-2,4(1H,3H)-dione] are 0.7 nM and 0.19 nM.
As to `CC(C)(F)C1CN(c2cc(-c3c[nH]c(=O)[nH]c3=O)nn3ccnc23)C1` [Example 409, 5-(8-(3-(2-fluoropropan-2-yl)azetidin-1-yl)imidazo[1,2-b]pyridazin-6-yl)pyrimidine-2,4(1H,3H)-dione], half-maximal inhibition on CD73 [1] (IC50) was put at 10.7 nM. At CD73 [2], this compound displayed an EC50 of 37.8 nM.
Regarding `O=c1[nH]cc(-c2cc([C@H]3C[C@@H]3c3cc(OCC(F)(F)F)c(Cl)cn3)c3nccn3n2)c(=O)[nH]1` (racemic) [Example 600, 5-(8-((1S,2S)-2-(5-chloro-4-(2,2,2-trifluoroethoxy)pyridin-2-yl)cyclopropyl)imidazo[1,2-b]pyridazin-6-yl)pyrimidine-2,4(1H,3H)-dione], it took 2.59 nM to reach half-maximal inhibition at CD73 [1] (IC50). It took 6.64 nM to reach a half-maximal effect on CD73 [2] (EC50).
`O=C(NC1CN(c2cc(-c3c[nH]c(=O)[nH]c3=O)nn3ccnc23)CC1(F)F)OCC(F)F` (centres unmarked) [Example 208, 2,2-difluoroethyl N-[1-[6-(2,4-dioxo-1H-pyrimidin-5-yl)imidazo[1,2-b]pyridazin-8-yl]-4,4-difluoro-pyrrolidin-3-yl]carbamate] returned an IC50 on CD73 [1] of 5.88 nM. The compound also registered an EC50 on CD73 [2] of 25.4 nM.
In the case of `N#Cc1ccnc(O[C@H]2CN(c3cc(-c4c[nH]c(=O)[nH]c4=O)nn4ccnc34)CC2(F)F)c1` [Example 342, 2-[(3S)-1-[6-(2,4-dioxo-1H-pyrimidin-5-yl)imidazo[1,2-b]pyridazin-8-yl]-4,4-difluoro-pyrrolidin-3-yl]oxypyridine-4-carbonitrile], on CD73 [1], the IC50 was 1.4 nM. At CD73 [2], the EC50 was 3.82 nM.
`C[C@H]1CN(c2cc(-c3c[nH]c(=O)[nH]c3=O)nn3c(Cl)cnc23)CC1(F)F` [Example 520, (S)-5-(3-chloro-8-(3,3-difluoro-4-methylpyrrolidin-1-yl)imidazo[1,2-b]pyridazin-6-yl)pyrimidine-2,4(1H,3H)-dione]: the IC50 against CD73 [1] is 43.8 nM. The concentration for a half-maximal effect (EC50) at CD73 [2] is 421 nM.
`CC1(C)CN(c2cc(-c3c[nH]c(=O)[nH]c3=O)nn3c(F)c(C4CC4)nc23)CC1(F)F` [Example 440, 5-(2-cyclopropyl-8-(3,3-difluoro-4,4-dimethylpyrrolidin-1-yl)-3-fluoroimidazo[1,2-b]pyridazin-6-yl)pyrimidine-2,4(1H,3H)-dione] had an IC50 at CD73 [1] of 38.2 nM. For the same compound, on CD73 [2], it took 140 nM to reach a half-maximal effect (EC50).
As to `O=c1[nH]cc(-c2cc([C@H]3C[C@@H]3c3ccc(C(F)(F)F)nc3)c3nccn3n2)c(=O)[nH]1` (racemic) [Example 152, 5-(8-((1S,2S)-2-(6-(trifluoromethyl)pyridin-3-yl)cyclopropyl)imidazo[1,2-b]pyridazin-6-yl)pyrimidine-2,4(1H,3H)-dione and 5-(8-((1R,2R)-2-(6-(trifluoromethyl)pyridin-3-yl)cyclopropyl)imidazo[1,2-b]pyridazin-6-yl)pyrimidine-2,4(1H,3H)-dione], the IC50 on CD73 [1] was 3.45 nM. In addition, it took 17.5 nM to reach a half-maximal effect at CD73 [2] (EC50).
In turn, `CC(C)Cc1cn2nc(-c3c[nH]c(=O)[nH]c3=O)cc(N3CC(F)(F)C4(CC4)C3)c2n1` [Example 475, 5-(8-(7,7-difluoro-5-azaspiro[2.4]heptan-5-yl)-2-isobutylimidazo[1,2-b]pyridazin-6-yl)pyrimidine-2,4(1H,3H)-dione] had an IC50 at CD73 [1] of 32.1 nM. Moreover, the midpoint of the response on CD73 [2], the EC50, lay at 932 nM.
On CD73 [1], `O=c1[nH]cc(-c2cc(N3C[C@@H](Oc4ccccn4)C(F)(F)C3)c3nccn3n2)c(=O)[nH]1` [Example 538, (R)-5-(8-(3,3-difluoro-4-(pyridin-2-yloxy)pyrrolidin-1-yl)imidazo[1,2-b]pyridazin-6-yl)pyrimidine-2,4(1H,3H)-dione] had an IC50 of 11.5 nM. In addition, it took 48.9 nM to reach a half-maximal effect at CD73 [2] (EC50).
Turning to `O=c1[nH]cc(-c2cc([C@H]3C[C@@H]3c3ccc4cnn(CC(F)(F)F)c4c3F)c3nccn3n2)c(=O)[nH]1` [Example 594, 5-(8-((1S,2S)-2-(7-fluoro-1-(2,2,2-trifluoroethyl)-1H-indazol-6-yl)cyclopropyl)imidazo[1,2-b]pyridazin-6-yl)pyrimidine-2,4(1H,3H)-dione], the IC50 at CD73 [1] came to 0.58 nM. This compound also gave an EC50 on CD73 [2] of 0.12 nM.
The compound `O=c1[nH]cc(-c2cc(N3CC4CC3C4)c3nccn3n2)c(=O)[nH]1` [Example 641, 5-(8-(2-azabicyclo[2.1.1]hexan-2-yl)imidazo[1,2-b]pyridazin-6-yl)pyrimidine-2,4(1H,3H)-dione] showed an IC50 at CD73 [1] of 77.5 nM. Besides, the EC50 at CD73 [2] was found to be 207 nM.
Turning to `O=c1[nH]cc(-c2cc(N3CC(OC(F)F)C(F)(F)C3)c3nccn3n2)c(=O)[nH]1` (centres unmarked) [Example 202, 5-[8-[4-(difluoromethoxy)-3,3-difluoro-pyrrolidin-1-yl]imidazo[1,2-b]pyridazin-6-yl]-1H-pyrimidine-2,4-dione], the IC50 against CD73 [1] was 1.04 nM. The compound further showed an EC50 on CD73 [2] of 4.25 nM.
`O=c1[nH]cc(-c2cc([C@H]3C[C@@H]3c3ccc(OC(F)F)nc3)c3ncc(F)n3n2)c(=O)[nH]1` (racemic) [Example 121, 5-(8-((1S,2S)-2-(6-(difluoromethoxy)pyridin-3-yl)cyclopropyl)-3-fluoroimidazo[1,2-b]pyridazin-6-yl)pyrimidine-2,4(1H,3H)-dione and 5-(8-((1R,2R)-2-(6-(difluoromethoxy)pyridin-3-yl)cyclopropyl)-3-fluoroimidazo[1,2-b]pyridazin-6-yl)pyrimidine-2,4(1H,3H)-dione] showed an IC50 against CD73 [1] of 1.08 nM. For the same compound, the midpoint of the response on CD73 [2], the EC50, lay at 19.7 nM.
Turning to `O=c1[nH]cc(-c2cc([C@H]3C[C@@H]3c3cnc4c(C(F)(F)F)cccc4c3)c3nccn3n2)c(=O)[nH]1` [Example 395, 5-(8-((1S,2S)-2-(8-(trifluoromethyl)quinolin-3-yl)cyclopropyl)imidazo[1,2-b]pyridazin-6-yl)pyrimidine-2,4(1H,3H)-dione], half-maximal inhibition against CD73 [1] (IC50) required 2.1 nM. The EC50 at CD73 [2] was 29.9 nM.
